Source: patent US6712802B1, “Metabolic therapy directed at electron transport” (priority 1997, dated 2004)
Read-outs that look alike come from different tables or passages of the source.

Assays:
isolated hearts [1] = conditions: 5-minute succinate infusion
From the text: (§1) Spraque-Dawley rats (250 to 300 g; Sasco Inc., Omaha, Nebr.) were fasted overnight to standardize the levels of glycogen and fatty acids. The animal protocol was reviewed and approved by an appropriate Animal Care and Research Committee. All animals received humane care in compliance with the “Guide for the Care and Use of Laboratory Animals” (NIH Publication No. 85-23, revised 1985). All chemicals were obtained from Sigma (St. Louis, Mo.).
As previously described by Banerjee et al, the hearts from rats anticoagulated with heparin were excised, immediately arrested in iced oxygenated perfusate, placed on a modified Langendorff apparatus, and retrograded perfused at a constant pressure of 70 mm Hg with nonrecirculating Krebs-Henseleit solution saturated with a gas mixture of 92.5% O2 and 7.5% CO2 Banerjee et al., Circ. Res., 73, 649 (1993). A water-filled latex balloon was inserted into the left ventricle (LV) and the balloon volume was adjusted to achieve a stable LV end-diastolic pressure of 5 mm Hg. This volume was then kept constant for the duration of the study. Pacing wires were fixed to the right atrium, and the hearts were paced at 350 beats per minute except during ischemia and the first three minutes of reperfusion.
The left ventricular developed pressure (LVDP, in mm Hg) was used as an index of myocardial function and was continuously recorded with a computerized bridge amplifier/digitalizer (Maclab 8, AD Instruments) and a Macintosh AV 7100 (Apple Computer). Hearts unable to initially produce 90 to 120 mm Hg LVDP when paced at 350 beats per minute were discarded. A stopcock above the aortic root was turned to create global ischemia, during which time the heart was placed in a degassed humidified chamber at 37° C.
The myocardial cytochrome a,a3 redox state, oxymyoglobin (MbO2) and deoxymyoglobin, was continuously monitored using near infrared spectroscopy (NIRS). The use of NIRS to study cardiac metabolism was described previously. In this study, a single NIRS probe (as disclosed in co-pending U.S. patent application Ser. No. 08/672,625) containing five fiber optic bundles (four peripherally arranged to supply infrared light (700 to 1000 nm) and one fiber positioned 4 mm away to receive the transmitted light) was placed on the lift ventricle. For each heart, a signal reference zero value is set at the beginning of the study. The resultant signal changes are continuously processed and recorded using analytic algorithms to separate the effects of each of the signals. The resulting NIRS measurements were taken directly from the monitor and plotted in absorption units versus time. These strips were then printed and saved for subsequent analysis.
In the second phase of the study, 12 isolated hearts were placed on the Langendorff apparatus as described above. After the equilibration period, 5-minute infusions of succinate at concentrations of 0, 2 ,20 ,200, and 2000 μmol/L were delivered via a Harvard infusion pump directly into a port above the aortic cannula at 0.068 mL/minute. LVDP, heart rate, cytochrome a,a3 redox state, MbO2 and deoxymyoglobin were continuously monitored as described above.

isolated hearts [2] = system: isolated hearts
From the text: as §1
As previously described by Banerjee et al, the hearts from rats anticoagulated with heparin were excised, immediately arrested in iced oxygenated perfusate, placed on a modified Langendorff apparatus, and retrograded perfused at a constant pressure of 70 mm Hg with nonrecirculating Krebs-Henseleit solution saturated with a gas mixture of 92.5% O2 and 7.5% CO2 Banerjee et al., Circ. Res., 73, 649 (1993). […]
The left ventricular developed pressure (LVDP, in mm Hg) was used as an index of myocardial function and was continuously recorded with a computerized bridge amplifier/digitalizer (Maclab 8, AD Instruments) and a Macintosh AV 7100 (Apple Computer). […]
The myocardial cytochrome a,a3 redox state, oxymyoglobin (MbO2) and deoxymyoglobin, was continuously monitored using near infrared spectroscopy (NIRS). […] The resultant signal changes are continuously processed and recorded using analytic algorithms to separate the effects of each of the signals. […]

[3] = lower concentrations, non-ischemic heart

O=C(O)CCC(=O)O [succinate] was tested, and the “LVDP (left ventricular developed pressure)” value (“LVDP” below) (isolated hearts [1]; 20 μmol/L) was “not different from control”, the “cytochrome a,a3 redox state” value (isolated hearts [1]; 20 μmol/L) was “reduction of the cytochrome a,a3 redox state” and the “LVDP” value (isolated hearts [1]; 200 μmol/L) was “not different from control”. For the same compound, the “cytochrome a,a3 redox state” value (isolated hearts [1]; 200 μmol/L) was “reduction of the cytochrome a,a3 redox state”, the “LVDP” value (isolated hearts [1]; 2000 μmol/L) was “markedly reduced” and the “cytochrome a,a3 redox state” value (isolated hearts [1]; 2000 μmol/L) was “markedly reduced”. For the same compound, the “LVDP” value (isolated hearts [1]; [3]) was “minimal effects”, the “cytochrome a,a3 redox state” value (isolated hearts [1]; [3]) was “minimal effects” and the “cytochrome a,a3 redox state on reperfusion” value (isolated hearts [2]; 200 μmol/L succinate for first 5 minutes of reperfusion after 20 min global ischemia, versus control buffer) was “attenuation of the oxidation”. The “coupling relationship between oxyhemoglobin and the redox state of cytochrome a,a3” value (isolated hearts [2]; succinate given early in reperfusion at the described dosages) was “restores the coupling relationship”.
